Where “and” joins values, the source holds several entries; their conditions need not be identical. Identical values can stand only once.
Key:
c-Kit phosphorylation = biological target: T1, c-Kit phosphorylation (Homo sapiens, UniProt P10721); experiment: c-Kit phosphorylation ELISA assay in melanoma cells; type: cell-based; conditions: WM266-4 and A2058 cells, 6a 10 μM, 72 h, vs vehicle-treated
T1 construct: endogenous in cells; host or cells: WM266-4 and A2058 human melanoma cells
Procedure: (§1) WM266-4 and A2058 cells (5 × 10^4 cells/well) were treated for 72 h with compound 6a (10 μM) or with vehicle alone. To measure phospho c-Kit and phospho AurB, at the end of the experiment, the cells were harvested and immediately frozen with liquid nitrogen. Cells were then lysed and the total protein was measured. In each sample, an equal amount of proteins was then assayed for human c-Kit and AurB phosporylation by the Human Phospho-CD117/c-kit ELISA Kit (Assaysolution; Woburn, MA, USA) and the AurB (Phospho-Thr232) ELISA Kit (Aviva System Biology; San Diego, CA, USA) and normalized by total protein c-Kit and AurB concentration measured by c-Kit and AurB ELISA kits, respectively. The optical density was determined using the microplate reader Multiskan Spectrum set to 450 nm. All experiments were repeated, independently, six times with at least nine samples for each concentration. The data were expressed as the ratio of phosphorylated c-Kit or AurB/total c-Kit or AurB.

AurC = biological target: T2, AurC (Homo sapiens, UniProt Q9UQB9); experiment: Protein kinase inhibitory assay, AurC; type: biochemical; conditions: 10 μM test compound
T2 construct: purchased ThermoFisher Scientific
T2 sequence (Q9UQB9 1-309): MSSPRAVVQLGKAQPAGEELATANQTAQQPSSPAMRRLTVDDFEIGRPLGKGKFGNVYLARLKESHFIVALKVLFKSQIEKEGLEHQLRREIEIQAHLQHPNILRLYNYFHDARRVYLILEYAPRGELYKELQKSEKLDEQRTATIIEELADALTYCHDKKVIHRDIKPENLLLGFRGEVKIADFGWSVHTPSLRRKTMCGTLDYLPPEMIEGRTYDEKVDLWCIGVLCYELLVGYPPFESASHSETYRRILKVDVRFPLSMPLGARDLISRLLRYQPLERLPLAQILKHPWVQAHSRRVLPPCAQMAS
Procedure: (§2) Cell culture media EMEM and DMEM, fetal bovine serum (FBS), L-glutamine, and antibiotics were from Sigma-Aldrich St. Louis, MO, USA). Vemurafenib was purchased from Selleckchem (Munich, Germany). Human recombinant protein kinases and Protein kinase assay kits were from ThermoFisher Scientific (MA, US). Plastics were supplied by Sarstedt (Verona, Italy).
(§3) Inhibitory assays were performed in accordance with a previously reported procedure, standardized for RET and VEGFR2[28],[41]. Test compounds were dissolved in 100% DMSO and diluted to the appropriate concentrations with the reaction buffer, provided by the kit. […] The inhibitory effect of the novel compounds was routinely estimated at 10 μM concentration.

AurA = biological target: T3, AurA (Homo sapiens, UniProt O14965); experiment: Protein kinase inhibitory assay, AurA; type: biochemical; conditions: 10 μM test compound
T3 construct: purchased ThermoFisher Scientific
T3 sequence (O14965 1-403): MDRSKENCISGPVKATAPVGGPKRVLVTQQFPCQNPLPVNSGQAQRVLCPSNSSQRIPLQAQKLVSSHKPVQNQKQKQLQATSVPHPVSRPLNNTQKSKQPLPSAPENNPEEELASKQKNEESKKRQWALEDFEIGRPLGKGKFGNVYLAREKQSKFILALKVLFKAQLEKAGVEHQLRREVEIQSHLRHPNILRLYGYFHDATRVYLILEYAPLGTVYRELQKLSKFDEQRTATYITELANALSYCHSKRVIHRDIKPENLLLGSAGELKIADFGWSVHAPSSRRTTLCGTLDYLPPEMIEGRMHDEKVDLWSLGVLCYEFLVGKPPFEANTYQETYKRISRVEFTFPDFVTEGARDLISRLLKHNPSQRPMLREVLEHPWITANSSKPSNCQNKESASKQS

WM266-4 cell line = experiment: Proliferation assay, WM266-4 melanoma cells (single agents and combination, Chou-Talalay); type: cell-based, human; conditions: for Dose Reduction Index (DRI) 6a + vemurafenib: DRI of each drug in the combination
Procedure: (§4) Compound 6a, merging the best inhibitory profile against the target c-Kit/AurB kinases, was tested on the human A2058 (American Type Culture Collection, Manassas, USA) and WM266-4 (European Collection of Authenticated Cell Cultures, Salisbury, UK) cell lines, chosen as representative of BRAF-mutated melanoma cell lines, to investigate its anti-proliferative efficacy. […]. Vemurafenib, the BRAF V600E inhibitor currently used for the treatment of inoperable, metastatic melanoma, was used as the reference compound. […] The level of possible interaction between the two kinase inhibitors, synergistic, additive or antagonist in nature, was determined by the method of Chou-Talaly[38] and quantitated through the combination index (CI), calculated exploiting the following multiple drug-effect Eq. (1)1 CI=[(D)1/(Dx)1]+[(D)2/(Dx)2] and referred to as synergism, additive effect and antagonism when CI < 1, CI = 1 and CI > 1, respectively.
(§5) The Dose Reduction Index (DRI) was calculated as well, to assess the theoretical magnitude of concentration reduction allowed for the two drugs when given in synergistic combination in vitro to achieve the same effect as that obtained with the concentration of each single agent. DRI was calculated by the following Eq. (2):2 (DRI)=(Dx)/(D)
(§6) Test compounds 6a and vemurafenib were dissolved in a stock solution of 10 mM in 100% dimethylsulfoxide (DMSO) for in vitro studies. DMSO concentration in the control’s media was the same used to make up the highest concentration of test compounds in growth media for the same experiment. In vitro chemosensitivity was tested on melanoma WM266-4 and A2058 cell lines. Cells were grown in EMEM and DMEM media, respectively, plated in sterile 24-well plastic plates and treated for 72 h (using 10^3 cells/well in 1 mL of medium) with added 6a (range of 1–100 μM), or vemurafenib (0.0001–100 μM) alone. The synergistic effect between 6a and vemurafenib was calculated with the method of Chou-Talaly[38] based on the multiple drug-effect equation and quantitated by the combination index (CI) and the dose reduction index (DRI), where CI < 1 and DRI > 1 indicate synergism. At the end of the experiment, cells were harvested with trypsin/EDTA, and viable cells were quantified using the automatic cell counter ADAM MC Digital B (Twin Helix, Milano, Italy). The data are presented as the percentage of vehicle-treated cells. […] All experiments were repeated independently three times with at least nine samples for each concentration.

A2058 cell line = experiment: Proliferation assay, A2058 melanoma cells (single agents and combination, Chou-Talalay); type: cell-based, human; conditions: for Dose Reduction Index (DRI) 6a + vemurafenib: DRI of each drug in the combination
Procedure: as §4, §5, §6

AurB phosphorylation = biological target: T4, AurB phosphorylation (Homo sapiens, UniProt Q96GD4); experiment: AurB phosphorylation (Phospho-Thr232) ELISA assay in melanoma cells; type: cell-based; conditions: WM266-4 and A2058 cells, 6a 10 μM, 72 h, vs vehicle-treated
T4 construct: endogenous in cells; host or cells: WM266-4 and A2058 human melanoma cells
Procedure: as §1

AurB = biological target: T5, AurB (Homo sapiens, UniProt Q96GD4); experiment: Protein kinase inhibitory assay, AurB; type: biochemical; conditions: 10 μM test compound
T5 construct: purchased ThermoFisher Scientific
Procedure: as §2, §3

[1] = WM266-4, affected cell fraction 75%
[2] = WM266-4, affected cell fraction 85%
[3] = WM266-4, affected cell fraction 95%
[4] = A2058, affected cell fraction 75%
[5] = A2058, affected cell fraction 85%

T5 sequence (Q96GD4 whole entry): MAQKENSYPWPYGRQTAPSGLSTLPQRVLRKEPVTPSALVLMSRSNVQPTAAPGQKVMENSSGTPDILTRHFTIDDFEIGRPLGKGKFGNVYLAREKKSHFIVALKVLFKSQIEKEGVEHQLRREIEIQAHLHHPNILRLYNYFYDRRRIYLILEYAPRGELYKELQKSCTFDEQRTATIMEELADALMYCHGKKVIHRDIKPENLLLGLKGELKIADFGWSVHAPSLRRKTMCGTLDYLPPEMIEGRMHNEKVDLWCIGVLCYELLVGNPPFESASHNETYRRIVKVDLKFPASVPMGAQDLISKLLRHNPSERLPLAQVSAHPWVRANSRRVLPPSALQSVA
T1 sequence (P10721 26-976): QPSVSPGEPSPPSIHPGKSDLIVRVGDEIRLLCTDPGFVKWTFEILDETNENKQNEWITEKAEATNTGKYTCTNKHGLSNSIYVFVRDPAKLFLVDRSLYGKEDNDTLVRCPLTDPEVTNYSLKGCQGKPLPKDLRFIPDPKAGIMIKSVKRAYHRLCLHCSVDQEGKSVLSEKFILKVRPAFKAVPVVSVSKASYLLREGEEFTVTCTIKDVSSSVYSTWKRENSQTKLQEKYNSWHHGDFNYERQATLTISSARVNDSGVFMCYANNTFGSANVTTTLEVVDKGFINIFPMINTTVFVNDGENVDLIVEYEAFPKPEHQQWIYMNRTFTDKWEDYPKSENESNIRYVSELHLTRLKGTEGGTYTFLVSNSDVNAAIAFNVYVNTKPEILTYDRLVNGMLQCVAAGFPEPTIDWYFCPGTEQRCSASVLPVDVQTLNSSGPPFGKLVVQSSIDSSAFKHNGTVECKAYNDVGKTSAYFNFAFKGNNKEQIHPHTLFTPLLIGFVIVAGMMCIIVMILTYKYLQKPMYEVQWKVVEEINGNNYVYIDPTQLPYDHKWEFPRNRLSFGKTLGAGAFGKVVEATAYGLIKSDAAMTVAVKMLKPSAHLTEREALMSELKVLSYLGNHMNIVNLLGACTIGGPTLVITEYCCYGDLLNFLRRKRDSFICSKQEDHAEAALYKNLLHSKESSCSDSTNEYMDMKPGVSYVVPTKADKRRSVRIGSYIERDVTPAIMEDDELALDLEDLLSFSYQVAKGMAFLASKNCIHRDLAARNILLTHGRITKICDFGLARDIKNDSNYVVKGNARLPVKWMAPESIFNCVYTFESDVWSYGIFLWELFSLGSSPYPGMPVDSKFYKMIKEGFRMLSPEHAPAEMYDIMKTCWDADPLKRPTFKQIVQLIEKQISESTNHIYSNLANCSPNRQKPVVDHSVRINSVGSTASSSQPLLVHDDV
T4 sequence (Q96GD4 whole entry): as the sequence (Q96GD4 whole entry) above

O=C(Nc1ccccc1)Nc1ccc(SCc2n[nH]c(-c3ccccc3)n2)cc1 [Compound 6a, 1-phenyl-3-(4-(((3-phenyl-1H-1,2,4-triazol-5-yl)methyl)thio)phenyl)urea]
inhibition of c-Kit phosphorylation (ratio phosphorylated c-Kit/total c-Kit) (c-Kit phosphorylation): significant inhibition of c-Kit phosphorylation
percentage of kinase inhibition, AurC (AurC): most effective of the whole series
percentage of kinase inhibition, AurA (AurA): most active of the synthesized series
IC50 (WM266-4 cell line; Homo sapiens, WM 266-4, WM266-4, BRAF V600E, 72 h exposure, read-out: IC50 antiproliferative activity): 9.65 µM
Dose Reduction Index (DRI) 6a + vemurafenib (WM266-4 cell line; [1]): 374.9
Dose Reduction Index (DRI) 6a + vemurafenib (WM266-4 cell line; [2]): 272.1
Dose Reduction Index (DRI) 6a + vemurafenib (WM266-4 cell line; [3]): 150 and 147.9
Dose Reduction Index (DRI) 6a + vemurafenib (A2058 cell line; [4]): 494.1
Dose Reduction Index (DRI) 6a + vemurafenib (A2058 cell line; [5]): 429.0
IC50 (A2058 cell line; Homo sapiens, A2058, BRAF V600D, 72 h exposure, read-out: IC50 antiproliferative activity): 11.4 µM
quantity of the phosphorylated form of AurB (ratio phosphorylated AurB/total AurB) (AurB phosphorylation): weakly reduced

CN(C)c1ccc(NC(=O)Nc2ccc(SCc3n[nH]c(-c4ccc(Cl)cc4)n3)cc2)cc1 [Compound 6e]
percentage of kinase inhibition, AurA (AurA): no inhibitory activity
percentage of kinase inhibition, AurB (AurB): no inhibitory activity

O=C(Nc1ccc(SCc2n[nH]c(-c3ccc(Br)cc3)n2)cc1)Nc1ccc(C(F)(F)F)cc1 [Compound 6g]
percentage of kinase inhibition, AurA (AurA): no inhibitory activity

COc1ccc(NC(=O)Nc2ccc(SCc3n[nH]c(-c4ccc(Br)cc4)n3)cc2)cc1OC [Compound 6h]
percentage of kinase inhibition, AurB (AurB): no inhibitory activity

CCCS(=O)(=O)Nc1ccc(F)c(C(=O)c2c[nH]c3ncc(-c4ccc(Cl)cc4)cc23)c1F [vemurafenib]
Dose Reduction Index (DRI) 6a + vemurafenib (WM266-4 cell line; [1]): 1.1
Dose Reduction Index (DRI) 6a + vemurafenib (WM266-4 cell line; [2]): 1.2
Dose Reduction Index (DRI) 6a + vemurafenib (WM266-4 cell line; [3]): 1.4
Dose Reduction Index (DRI) 6a + vemurafenib (A2058 cell line; [4]): 21.8
Dose Reduction Index (DRI) 6a + vemurafenib (A2058 cell line; [5]): 22.2
Dose Reduction Index (DRI) 6a + vemurafenib (A2058 cell line; A2058, affected cell fraction 95%): 22.9

Source: paper PMC6617451, “Dual Kit/Aur Inhibitors as Chemosensitizing Agents for the Treatment of Melanoma: Design, Synthesis, Docking Studies and Functional Investigation” (Scientific Reports, 2019)
